Holding throughout (type): biochemical
In one test the target is SRC (Homo sapiens, UniProt P12931). The experiment in a line: Inhibition of a panel of kinases, in vitro HotSpot kinase assay: SRC. The protocol:
(§1) The degree of inhibition of a panel of kinases is determined using the in vitro HotSpot kinase assay (purified enzymes, ^33P-ATP, an appropriate substrate and 1 μM ATP).

The target of the next test is T1, TEC (Homo sapiens, UniProt P42680).
T1 sequence (P42680 1-631): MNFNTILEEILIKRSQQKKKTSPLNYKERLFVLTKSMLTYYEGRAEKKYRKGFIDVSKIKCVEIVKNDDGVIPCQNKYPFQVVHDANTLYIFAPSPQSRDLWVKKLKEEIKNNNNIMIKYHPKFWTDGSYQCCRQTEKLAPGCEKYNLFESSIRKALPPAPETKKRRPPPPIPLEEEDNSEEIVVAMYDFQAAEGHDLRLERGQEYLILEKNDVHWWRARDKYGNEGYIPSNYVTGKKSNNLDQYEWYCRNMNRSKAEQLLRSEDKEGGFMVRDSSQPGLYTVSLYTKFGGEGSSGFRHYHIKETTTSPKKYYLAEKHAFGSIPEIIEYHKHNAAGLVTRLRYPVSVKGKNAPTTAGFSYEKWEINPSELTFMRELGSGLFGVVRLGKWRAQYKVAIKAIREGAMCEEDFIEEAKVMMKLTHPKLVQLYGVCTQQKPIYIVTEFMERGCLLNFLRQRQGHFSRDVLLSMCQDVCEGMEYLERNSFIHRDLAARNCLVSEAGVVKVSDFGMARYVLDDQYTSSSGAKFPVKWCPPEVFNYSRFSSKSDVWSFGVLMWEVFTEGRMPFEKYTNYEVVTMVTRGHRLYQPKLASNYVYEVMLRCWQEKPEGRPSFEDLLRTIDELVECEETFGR
In words: Inhibition of a panel of kinases, in vitro HotSpot kinase assay: TEC. Here is the method: as §1

In another test the target is T2, BTK-WT (Homo sapiens, UniProt Q06187).
T2 construct: purified from insect cells as a full-length construct containing an N-terminal 6X-His tag; His6 (N); made in house; host or cells: insect cells (baculovirus Sf21 in Method B)
The experiment in a line: Btk in vitro inhibitory activity (one of Method A TR-FRET, Method B electrophoretic mobility shift, Method C radiometric filter binding). As to conditions: read-out: IC50 BTK-WT. (In general: A gel shift assay detects complexes by their altered migration in electrophoresis.)

Where [1] appears, read: D-compounds panel data, 1 μM ATP.

The structures appear in SMILES notation. Where two headings read alike, the source gives them in different places.

IC50 data for 20 compounds are collected here from patent US20210070748A1, “INHIBITORS OF BRUTONS TYROSINE KINASE” (Pharmacyclics LLC, priority 2015, published 2021).

For orientation: IC50 means the concentration that gives 50% inhibition.

Chain of SRC (P12931 whole entry): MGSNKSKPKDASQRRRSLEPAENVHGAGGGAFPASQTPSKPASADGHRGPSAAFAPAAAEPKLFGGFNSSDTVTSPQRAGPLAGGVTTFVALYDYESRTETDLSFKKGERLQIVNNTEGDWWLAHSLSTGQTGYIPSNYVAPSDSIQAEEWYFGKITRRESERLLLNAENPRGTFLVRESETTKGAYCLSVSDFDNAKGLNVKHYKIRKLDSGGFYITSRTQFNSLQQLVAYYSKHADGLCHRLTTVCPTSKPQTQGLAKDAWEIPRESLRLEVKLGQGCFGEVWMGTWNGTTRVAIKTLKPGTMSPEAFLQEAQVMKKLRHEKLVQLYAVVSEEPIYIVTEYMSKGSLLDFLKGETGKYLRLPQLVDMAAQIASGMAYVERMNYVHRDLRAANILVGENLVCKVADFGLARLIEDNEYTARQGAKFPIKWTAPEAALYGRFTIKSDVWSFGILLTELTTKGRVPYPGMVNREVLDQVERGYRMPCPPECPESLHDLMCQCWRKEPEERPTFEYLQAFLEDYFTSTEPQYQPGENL
T2 sequence (Q06187 whole entry): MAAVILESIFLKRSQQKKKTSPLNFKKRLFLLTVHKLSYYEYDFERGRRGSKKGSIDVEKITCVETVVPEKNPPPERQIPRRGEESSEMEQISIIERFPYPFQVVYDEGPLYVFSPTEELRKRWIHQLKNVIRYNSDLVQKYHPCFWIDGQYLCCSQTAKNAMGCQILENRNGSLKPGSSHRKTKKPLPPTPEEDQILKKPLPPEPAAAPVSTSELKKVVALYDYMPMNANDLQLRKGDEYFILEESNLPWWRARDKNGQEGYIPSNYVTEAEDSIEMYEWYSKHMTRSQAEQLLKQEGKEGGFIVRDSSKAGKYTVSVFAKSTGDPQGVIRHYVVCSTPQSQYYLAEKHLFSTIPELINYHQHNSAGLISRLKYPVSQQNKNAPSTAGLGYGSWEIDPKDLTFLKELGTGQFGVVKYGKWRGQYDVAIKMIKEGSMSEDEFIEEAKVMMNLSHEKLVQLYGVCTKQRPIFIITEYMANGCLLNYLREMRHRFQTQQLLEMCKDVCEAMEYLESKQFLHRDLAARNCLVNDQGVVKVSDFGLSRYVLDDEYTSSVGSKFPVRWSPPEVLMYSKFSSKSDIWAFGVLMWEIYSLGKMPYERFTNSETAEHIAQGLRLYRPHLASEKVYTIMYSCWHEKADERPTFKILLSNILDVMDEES

With `C[C@@H]1[C@H](NC(=O)c2ccc(C3CC3)cc2)CCCN1c1cnc(C(N)=O)c(Nc2ccc(CN3CCOCC3)cc2)n1` [Example D-316, 5-[(2R,3R)-3-(4-cyclopropylbenzamido)-2-methylpiperidin-1-yl]-3-{[4-(morpholin-4-ylmethyl)phenyl]amino}pyrazine-2-carboxamide], the IC50 is 10 to 100 nM on SRC (setting [1]), 10 to 100 nM against TEC (setting [1]) and no more than 10 nM on BTK-WT (D-compounds panel data).
`C[C@@H]1C[C@H](NC(=O)c2ccc(C3CC3)cc2)CN(c2cnc(C(N)=O)c(Nc3cnn(C)c3)n2)C1` [Example D-32, 5-[(3S,5R)-3-(4-cyclopropylbenzamido)-5-methylpiperidin-1-yl]-3-[(1-methyl-1H-pyrazol-4-yl)amino]pyrazine-2-carboxamide]: the IC50 is greater than 10000 nM against SRC (setting [1]), 100 to 1000 nM on TEC (setting [1]) and 100 to 1000 nM on BTK-WT (D-compounds panel data).
As to `C[C@H]1C[C@@H](NC(=O)c2ccc(C3CC3)cc2)CN(c2cnc(C(N)=O)c(Nc3cnn(C)c3)n2)C1` [Example D-30, 5-[(3R,5S)-3-(4-cyclopropylbenzamido)-5-methylpiperidin-1-yl]-3-[(1-methyl-1H-pyrazol-4-yl)amino]pyrazine-2-carboxamide], the IC50 was 100 to 1000 nM at SRC (setting [1]), 10 to 100 nM on TEC (setting [1]) and no more than 10 nM at BTK-WT (D-compounds panel data).
Regarding `CN1CCN(C(=O)c2ccc(Nc3nc(N[C@H]4CC[C@@H](NC(=O)N(C)C)CC4)cnc3C(N)=O)cc2)CC1` [Example D-72, 3-{[4-(4-methylpiperazine-1-carbonyl)phenyl]amino}-5-{[(1s,4s)-4-[(dimethylcarbamoyl)amino]cyclohexyl]amino}pyrazine-2-carboxamide], the IC50 against SRC (setting [1]) fell in the range of 100 to 1000 nM; against TEC (setting [1]), 1000 to 10000 nM; on BTK-WT (D-compounds panel data), 10 to 100 nM.
The corresponding values for `C[C@@H]1[C@H](NC(=O)c2ccc(C3CC3)cc2F)CCCN1c1cnc(C(N)=O)c(Nc2nc3c(s2)CN(C)CC3)n1` [Example D-62, 5-[(2R,3R)-3-(4-cyclopropyl-2-fluorobenzamido)-2-methylpiperidin-1-yl]-3-({5-methyl-4H,5H,6H,7H-[1,3]thiazolo[5,4-c]pyridin-2-yl}amino)pyrazine-2-carboxamide] are greater than 10000 nM, 100 to 1000 nM and 100 to 1000 nM.
In the case of `Cc1cc(Nc2nc(N3C[C@@H](NC(=O)N(C)C)CC[C@@H]3C)cnc2C(N)=O)sn1` [Example D-76, 5-[(2S,5S)-5-[(dimethylcarbamoyl)amino]-2-methylpiperidin-1-yl]-3-[(3-methyl-1,2-thiazol-5-yl)amino]pyrazine-2-carboxamide], the values for the IC50 on SRC (setting [1]), on TEC (setting [1]) and at BTK-WT (D-compounds panel data) were 1000 to 10000 nM, 1000 to 10000 nM and 100 to 1000 nM, respectively.
With `C[C@@H]1[C@H](NC(=O)c2ccc(C3CC3)cc2F)CCCN1c1cnc(C(N)=O)c(Nc2ccc(N3CCOCC3)cc2)n1` [Example D-73, 5-[(2R,3R)-3-(4-cyclopropyl-2-fluorobenzamido)-2-methylpiperidin-1-yl]-3-{[4-(morpholin-4-yl)phenyl]amino}pyrazine-2-carboxamide], the figures for the IC50 at SRC (setting [1]), against TEC (setting [1]) and on BTK-WT (D-compounds panel data) were 100 to 1000 nM, 10 to 100 nM and no more than 10 nM, respectively.
`Cc1cc(Nc2nc(N3C[C@@H](NC(=O)c4ccc(C5CC5)cc4F)CC[C@@H]3C)cnc2C(N)=O)sn1` [Example D-78, 5-[(2S,5S)-5-(4-cyclopropyl-2-fluorobenzamido)-2-methylpiperidin-1-yl]-3-[(3-methyl-1,2-thiazol-5-yl)amino]pyrazine-2-carboxamide]: the IC50 at SRC (setting [1]) is 100 to 1000 nM; at TEC (setting [1]), 1000 to 10000 nM; on BTK-WT (D-compounds panel data) it was 100 to 1000 nM.
On to `C[C@@H]1[C@H](NC(=O)c2ccc(C3CC3)cc2)CCCN1c1cnc(C(N)=O)c(Nc2ccc(N3CCN(C)CC3)cc2)n1` [Example D-81], for which the figures for the IC50 against SRC (setting [1]), against TEC (setting [1]) and at BTK-WT (D-compounds panel data) were 10 to 100 nM, 10 to 100 nM and no more than 10 nM, respectively.
Consider `CN1CCN(C(=O)c2ccc(Nc3nc(N[C@H]4CC[C@@H](NC(=O)c5ccc(C6CC6)cc5F)CC4)cnc3C(N)=O)cc2)CC1` [Example D-71, 3-{[4-(4-methylpiperazine-1-carbonyl)phenyl]amino}-5-{[(1 s,4s)-4-(4-cyclopropyl-2-fluorobenzamido)cyclohexyl]amino}pyrazine-2-carboxamide], for which the IC50 lay within 100 to 1000 nM at SRC (setting [1]), 100 to 1000 nM on TEC (setting [1]) and 10 to 100 nM at BTK-WT (D-compounds panel data).
For `Cc1cc(Nc2nc(N3C[C@H](NC(=O)c4ccc(C5CC5)cc4F)CC[C@H]3C)cnc2C(N)=O)sn1` [Example D-79, 5-[(2R,5R)-5-(4-cyclopropyl-2-fluorobenzamido)-2-methylpiperidin-1-yl]-3-[(3-methyl-1,2-thiazol-5-yl)amino]pyrazine-2-carboxamide], the IC50 is 1000 to 10000 nM on SRC (setting [1]), greater than 10000 nM at TEC (setting [1]) and 100 to 1000 nM on BTK-WT (D-compounds panel data).
The matching figures for `CN(C)C(=O)N[C@H]1CCCN(c2cnc(C(N)=O)c(Nc3ccc4ncccc4c3)n2)[C@H]1CO` (racemic) [Example D-65, cis 5-[3-[(dimethylcarbamoyl)amino]-2-(hydroxymethyl)piperidin-1-yl]-3-[(quinolin-6-yl)amino]pyrazine-2-carboxamide]: 1000 to 10000 nM, 1000 to 10000 nM and 100 to 1000 nM.
For the compound `C=CC(=O)N1CCC[C@@H](Nc2cnc(C(N)=O)c(Nc3ccc(C4CCN(C5CCCC5)CC4)cc3)n2)C1` [Example E-108, (R)-5-(1-acryloylpiperidin-3-ylamino)-3-(4-(1-cyclopentylpiperidin-4-yl)phenylamino)pyrazine-2-carboxamide], the IC50 is 10 to 100 nM at SRC (E compounds, Table 17); no more than 10 nM at TEC (E compounds, Table 17); no more than 10 nM on BTK-WT (E compounds, Table 17).
For the compound `C[C@@H]1[C@H](NC(=O)c2ccc(C(C)(C)C#N)cc2)CCCN1c1cnc(C(N)=O)c(Nc2cnn(C)c2)n1` [Example D-88, 5-[(2R,3R)-3-[4-(1-cyano-1-methylethyl)benzamido]-2-methylpiperidin-1-yl]-3-[(1-methyl-1H-pyrazol-4-yl)amino]pyrazine-2-carboxamide], the IC50 at SRC (setting [1]) was 10 to 100 nM; against TEC (setting [1]), 10 to 100 nM; at BTK-WT (D-compounds panel data), no more than 10 nM.
With `Cc1cc(Nc2nc(N3C[C@@H](NC(=O)c4ccc(C5CC5)cc4F)CC[C@H]3C)cnc2C(N)=O)sn1` [Example D-80, 5-[(2R,5S)-5-(4-cyclopropyl-2-fluorobenzamido)-2-methylpiperidin-1-yl]-3-[(3-methyl-1,2-thiazol-5-yl)amino]pyrazine-2-carboxamide], the IC50 was in the range of 100 to 1000 nM against SRC (setting [1]), 1000 to 10000 nM on TEC (setting [1]) and 10 to 100 nM on BTK-WT (D-compounds panel data).
The corresponding values for `Cc1cc(Nc2nc(N3CCC[C@@H](NC(=O)N(C)C)[C@H]3CO)cnc2C(N)=O)sn1` [Example D-67, 5-[(2S,3R)-3-[(dimethylcarbamoyl)amino]-2-(hydroxymethyl)piperidin-1-yl]-3-[(3-methyl-1,2-thiazol-5-yl)amino]pyrazine-2-carboxamide] are 100 to 1000 nM, 100 to 1000 nM and 10 to 100 nM.
The corresponding values for `C[C@@H]1[C@H](NC(=O)c2ccc(C3CC3)cc2)CCCN1c1cnc(C(N)=O)c(Nc2ccc3nccn3c2)n1` [Example D-83, 5-[(2R,3R)-3-(4-cyclopropylbenzamido)-2-methylpiperidin-1-yl]-3-({imidazo[1,2-a]pyridin-6-yl}amino)pyrazine-2-carboxamide] are 100 to 1000 nM, 10 to 100 nM and 10 to 100 nM.
For the compound `Cc1cc(Nc2nc(N3C[C@@H](NC(=O)N(C)C)CC[C@H]3C)cnc2C(N)=O)sn1` [Example D-75, 5-[(2R,5S)-5-[(dimethylcarbamoyl)amino]-2-methylpiperidin-1-yl]-3-[(3-methyl-1,2-thiazol-5-yl)amino]pyrazine-2-carboxamide], the IC50 lay in the range of 100 to 1000 nM against SRC (setting [1]), 100 to 1000 nM against TEC (setting [1]) and 10 to 100 nM on BTK-WT (D-compounds panel data).
In the case of `C[C@@H]1[C@H](NC(=O)c2ccc3c(c2)C(C)(C)CO3)CCCN1c1cnc(C(N)=O)c(Nc2cnn(C)c2)n1` [Example D-55, 5-[(2R,3R)-3-(3,3-dimethyl-2,3-dihydro-1-benzofuran-5-amido)-2-methylpiperidin-1-yl]-3-[(1-methyl-1H-pyrazol-4-yl)amino]pyrazine-2-carboxamide], the IC50 on SRC (setting [1]) was 10 to 100 nM; at TEC (setting [1]), no more than 10 nM; on BTK-WT (D-compounds panel data), no more than 10 nM.
With `NC(=O)c1ncc(N2CCC[C@@H](NC(=O)c3ccc(C4CC4)cc3F)C2)nc1Nc1cc(-c2ccccc2)ns1` [Example D-3, 5-[(3R)-3-(4-cyclopropyl-2-fluorobenzamido)piperidin-1-yl]-3-[(3-phenyl-1,2-thiazol-5-yl)amino]pyrazine-2-carboxamide], the IC50 against SRC (setting [1]), at TEC (setting [1]) and on BTK-WT (D-compounds panel data) was greater than 10000 nM throughout.
